Measurements as given in ChEMBL document CHEMBL5154929, “Optimization of the Natural Product Calothrixin A to Discover Novel Dual Topoisomerase I and II Inhibitors with Improved Anticancer Activity” (J Med Chem, 2022).
Active and inactive are the calls of the source. No cut-off for these calls is given here.

Assays:
[1] = In vivo acute toxicity in Balb/C mouse assessed as mortality at 10 to 50 mg/kg, iv administered once per 2 days for 7 days; type: organism-based; conditions: 168 h, dose 10-50 mg/kg, time 7 day
[2] = test system: A-375; assay: Induction of apoptosis in human A-375 cells assessed as increase in expression level of C-caspase-9 measured after 24 hrs by Western blotting analysis; type: functional, cell-based; conditions: dose 40-120 nM, DDE = dose-dependent effect
[3] = Toxicity in BALB/c nude mouse xenografted with human A-375 cells assessed as tolerability treated after 7 days of tumor implantation on right flank subcutaneously at 20 mg/kg, iv administered once per 2 days for 14 days measured once every two days; type: organism-based; conditions: in vivo, 336 h, time 14 day
[4] = test system: A-375; assay: Antimigratory activity in human A-375 cells assessed as reduction in cell migration incubated for 24 hrs by wound healing assay; type: functional, cell-based; conditions: dose 10-40 nM, DDE = dose-dependent effect
[5] = test system: A-375; assay: Induction of cell cycle arrest in human A-375 cells assessed as accumulation of cells at G1 phase at 40 nM incubated for 24 hrs by PI based flow cytometric analysis (RVB = 52.94%); type: functional
[6] = test system: HCT-116; assay: Inhibition of colony formation in human HCT-116 cells at 20 to 40 nM incubated for 48 hrs by crystal violet staining method; type: functional, cell-based; conditions: dose 20-40 nM
[7] = Tmax in Kunming mouse plasma at 10 mg/kg, iv administered as single dose measured after 5 to 360 mins by HPLC analysis; type: ADME, organism-based; conditions: time 5-360 min
[8] = test system: A-375; assay: Induction of apoptosis in human A-375 cells assessed as increase in expression level of Bax measured after 24 hrs by Western blotting analysis; type: functional, cell-based; conditions: dose 40-120 nM, DDE = dose-dependent effect
[9] = In vivo acute toxicity in Balb/C mouse assessed as pathological damage in lung at 50 mg/kg, iv administered once per 2 days for 7 days measured 24 hrs after last dose by H and E staining method; type: organism-based; conditions: 168 h, time 7 day
[10] = In vivo acute toxicity in Balb/C mouse assessed as pathological damage in heart at 50 mg/kg, iv administered once per 2 days for 7 days measured 24 hrs after last dose by H and E staining method; type: organism-based; conditions: 168 h, time 7 day
[11] = AUC in Kunming mouse plasma at 10 mg/kg, iv administered as single dose measured after 5 to 360 mins by HPLC analysis; type: ADME, organism-based; design: time upper 360 min, time lower 5 min, dose 10 mg/kg, route iv
[12] = biological target: DNA topoisomerase 2-alpha (Homo sapiens) (UniProt P11388); assay: Inhibition of human DNA topoisomerase II-alpha relaxation activity at 100 uM incubated for 30 mins by chemiDoc system
[13] = biological target: DNA topoisomerase 2-alpha (Homo sapiens) (UniProt P11388); assay: Poison activity at human topoisomerase II-alpha assessed as stabilization of enzyme-DNA cleavage complex by measuring nicked DNA formation at 100 uM after 60 mins by agarose gel electrophoresis method
[14] = test system: A-375; assay: In vivo antitumor activity against human A-375 cells xenografted in BALB/c nude mouse assessed as shrinkage of tumor tissue treated after 7 days of tumor implantation on right flank subcutaneously at 10 to 20 mg/kg, iv administered once per 2 days for 14 days measured once every two days; type: functional, organism-based; conditions: dose 10-20 mg/kg, time 14.0 day
[15] = Microsomal stability in mouse liver microsomes assessed as half life measured at 2 ug/ml upto 60 mins in presence of NADPH generating system and UGT incubation system by phase II metabolic stability kit method; type: ADME, Microsome; conditions: dose 2 µg/ml
[16] = test system: HCT-116; assay: Cytotoxicity against human HCT-116 cells expressing high level of topoisomerase I/II measured after 72 hrs by MTT assay; type: functional, cell-based; conditions: HCT-116, 72 h
[17] = test system: A-375; assay: Induction of apoptosis in human A-375 cells at 80 nM measured after 16 hrs by Annexin V-FITC and DAPI staining based flow cytometric analysis; type: functional
[18] = test system: HCT-116; assay: Antiproliferative activity against doxorubicin resistant human HCT-116 cells measured after 72 hrs by MTT assay; type: functional, cell-based; conditions: HCT-116, 72 h
[19] = test system: MCF7; assay: Inhibition of colony formation in human MCF7 cells at 20 to 40 nM incubated for 48 hrs by crystal violet staining method; type: functional, cell-based; conditions: dose 20-40 nM
[20] = test system: A-375; assay: Induction of apoptosis in human A-375 cells assessed as increase in expression level of C-caspase-3 measured after 24 hrs by Western blotting analysis; type: functional, cell-based; conditions: dose 40-120 nM, DDE = dose-dependent effect
[21] = test system: A-375; assay: Induction of apoptosis in human A-375 cells at 80 nM measured after 24 hrs by Annexin V-FITC and DAPI staining based flow cytometric analysis; type: functional
[22] = test system: A-375; assay: Antimigratory activity in human A-375 cells assessed as reduction in cell migration at 10 to 40 nM incubated for 24 hrs by crystal violet staining method; type: functional, cell-based; conditions: dose 10-40 nM
[23] = test system: A-375; assay: In vivo induction of apoptosis in human A-375 cells xenografted in BALB/c nude mouse assessed as increase in C-caspase-3 level treated after 7 days of tumor implantation on right flank subcutaneously at 10 to 20 mg/kg, iv administered once per 2 days for 14 days by measuring TUNEL positive cells under a light microscope; type: functional, organism-based; conditions: dose 10-20 mg/kg, time 14.0 day
[24] = Toxicity in BALB/c nude mouse xenografted with human A-375 cells assessed as body weight loss treated after 7 days of tumor implantation on right flank subcutaneously at 10 to 20 mg/kg, iv administered once per 2 days for 14 days measured once every two days; type: organism-based; conditions: in vivo, 336 h, dose 10-20 mg/kg, time 14 day
[25] = test system: A-375; assay: Induction of cell cycle arrest in human A-375 cells assessed as accumulation of cells at G2 phase at 20 nM incubated for 24 hrs by PI based flow cytometric analysis (RVB = 20.34%); type: functional
[26] = test system: MCF7; assay: Cytotoxicity against human MCF7 cells expressing high level of topoisomerase I/II measured after 72 hrs by MTT assay; type: functional, cell-based; conditions: MCF7, 72 h
[27] = In vivo acute toxicity in Balb/C mouse assessed as pathological damage in kidney at 50 mg/kg, iv administered once per 2 days for 7 days measured 24 hrs after last dose by H and E staining method; type: organism-based; conditions: 168 h, time 7 day
[28] = test system: A-375; assay: In vivo antitumor activity against human A-375 cells xenografted in BALB/c nude mouse assessed as decrease in tumor volume treated after 7 days of tumor implantation on right flank subcutaneously at 10 to 20 mg/kg, iv administered once per 2 days for 14 days measured once every two days; type: functional, organism-based; conditions: dose 10-20 mg/kg, time 14.0 day
[29] = test system: MDA-MB-231; assay: Cytotoxicity against human MDA-MB-231 cells expressing high level of topoisomerase I/II measured after 72 hrs by MTT assay; type: functional, cell-based; conditions: MDA-MB-231, 72 h
[30] = test system: A-375; assay: Induction of apoptosis in human A-375 cells at 40 nM measured after 24 hrs by Annexin V-FITC and DAPI staining based flow cytometric analysis; type: functional
[31] = test system: A-375; assay: Induction of apoptosis in human A-375 cells at 120 nM measured after 24 hrs by Annexin V-FITC and DAPI staining based flow cytometric analysis; type: functional
[32] = Half life in Kunming mouse plasma at 10 mg/kg, iv administered as single dose measured after 5 to 360 mins by HPLC analysis; type: ADME, organism-based; conditions: time 5-360 min
[33] = Clearance in Kunming mouse plasma at 10 mg/kg, iv administered as single dose measured after 5 to 360 mins by HPLC analysis; type: ADME, organism-based; conditions: time 5-360 min
[34] = In vivo acute toxicity in Balb/C mouse assessed as pathological damage in spleen at 50 mg/kg, iv administered once per 2 days for 7 days measured 24 hrs after last dose by H and E staining method; type: organism-based; conditions: 168 h, time 7 day

Sequence of DNA topoisomerase 2-alpha (Homo sapiens) (P11388 whole entry): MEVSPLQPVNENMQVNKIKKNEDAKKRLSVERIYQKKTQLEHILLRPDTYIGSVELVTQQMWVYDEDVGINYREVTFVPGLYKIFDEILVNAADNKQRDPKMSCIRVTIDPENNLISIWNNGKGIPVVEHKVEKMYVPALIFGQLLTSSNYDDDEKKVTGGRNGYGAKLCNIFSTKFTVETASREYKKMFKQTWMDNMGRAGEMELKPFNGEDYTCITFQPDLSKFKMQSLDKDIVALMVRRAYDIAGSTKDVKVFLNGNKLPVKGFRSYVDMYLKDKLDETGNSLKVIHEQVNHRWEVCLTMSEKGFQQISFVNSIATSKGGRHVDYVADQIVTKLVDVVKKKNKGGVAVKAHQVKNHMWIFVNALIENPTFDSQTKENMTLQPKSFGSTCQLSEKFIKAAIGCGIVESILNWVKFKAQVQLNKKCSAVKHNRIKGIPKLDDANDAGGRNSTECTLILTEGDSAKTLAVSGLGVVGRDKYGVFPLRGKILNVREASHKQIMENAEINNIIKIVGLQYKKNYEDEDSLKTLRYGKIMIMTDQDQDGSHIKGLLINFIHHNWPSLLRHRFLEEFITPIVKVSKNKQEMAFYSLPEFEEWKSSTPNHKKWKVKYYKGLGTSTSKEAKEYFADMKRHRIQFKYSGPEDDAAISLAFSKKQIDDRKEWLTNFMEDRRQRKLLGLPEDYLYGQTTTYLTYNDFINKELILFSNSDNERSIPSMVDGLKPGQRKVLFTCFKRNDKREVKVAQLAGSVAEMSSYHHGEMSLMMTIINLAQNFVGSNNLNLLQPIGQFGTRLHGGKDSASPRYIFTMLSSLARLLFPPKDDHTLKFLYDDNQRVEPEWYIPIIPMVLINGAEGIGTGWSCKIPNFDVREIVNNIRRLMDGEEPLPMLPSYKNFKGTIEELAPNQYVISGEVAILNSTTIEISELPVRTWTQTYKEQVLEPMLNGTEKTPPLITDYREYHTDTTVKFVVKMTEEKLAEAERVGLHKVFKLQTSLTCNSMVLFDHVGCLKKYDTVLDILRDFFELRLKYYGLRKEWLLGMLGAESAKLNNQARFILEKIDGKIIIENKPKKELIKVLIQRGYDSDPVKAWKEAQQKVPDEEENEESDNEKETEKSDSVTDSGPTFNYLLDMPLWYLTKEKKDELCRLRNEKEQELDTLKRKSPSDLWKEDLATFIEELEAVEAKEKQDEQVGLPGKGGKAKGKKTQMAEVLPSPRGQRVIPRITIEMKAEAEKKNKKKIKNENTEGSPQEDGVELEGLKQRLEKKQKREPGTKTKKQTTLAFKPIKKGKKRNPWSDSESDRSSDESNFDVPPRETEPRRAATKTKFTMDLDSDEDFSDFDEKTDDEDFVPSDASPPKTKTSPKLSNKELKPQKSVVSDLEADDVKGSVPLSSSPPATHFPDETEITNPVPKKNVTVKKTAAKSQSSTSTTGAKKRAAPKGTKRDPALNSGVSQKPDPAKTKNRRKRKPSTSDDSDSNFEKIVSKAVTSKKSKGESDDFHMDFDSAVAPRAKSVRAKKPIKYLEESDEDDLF

O=C1c2c[n+]([O-])c3ccccc3c2C(=O)c2c1c1ccccc1n2Cc1cn([C@@H]2C[C@H](O)[C@@H](CO)O2)nn1
Activity [1]: Non-Toxic | Activity [2]: Dde | Activity [3]: Non-Toxic | Activity [4]: Dde | Activity [5]: 28.94% | inhibition [6]: Active | Tmax [7]: 5 min | Activity [8]: Dde | Activity [9]: Non-Toxic | Activity [10]: Non-Toxic | AUC [11]: 48000 ng·h/mL | inhibition [12]: Active | Activity [13]: Active | Activity [14]: Active | half-life at 2 ug/ml [15]: 40 min | IC50 [16]: 50 nM | Activity [17]: 23.78% | IC50 [18]: 70 nM | inhibition [19]: Active | Activity [20]: Dde | Activity [21]: 36.21% | Activity [22]: Active | Activity [23]: Active | Activity [24]: Non-Toxic | Activity [25]: 29.19% | IC50 [26]: 110 nM | Activity [27]: Non-Toxic | Activity [28]: Active | IC50 [29]: 130 nM | Activity [30]: 23.26% | Activity [31]: 55.94% | half-life [32]: 151 min | clearance [33]: 1 mL/min/kg | Activity [34]: Non-Toxic
